In the supplement of paper PMC10307832:

Assays:
CX-5461 = compound: Cc1cnc(CNC(=O)c2c(=O)c3ccc(N4CCCN(C)CC4)nc3n3c2sc2ccccc23)cn1 [CX-5461]; test: relative viability (nuclei count vs DMSO), 5 days (fraction); higher = more cells survive
Outline: (§1)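 Nuclei counted with MetaXpress define viability as the ratio of treated to vehicle wells, given as a median across plates. The lung cancer cell lines were in 1536-well plates, pinned with five √10-spaced library-drug doses and imaged at 4× after 5 days and Hoechst staining. Plates passed with control CV below 25% and at least one doubling.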

IMD-0354 = compound: O=C(Nc1cc(C(F)(F)F)cc(C(F)(F)F)c1)c1cc(Cl)ccc1O [IMD-0354]; test: as above
Outline: as §1

Cell Line	relative viability (CX-5461; 0.01 µM)	relative viability (CX-5461; 0.03162 µM)	relative viability (CX-5461; 0.1 µM)	relative viability (CX-5461; 0.3162 µM)	relative viability (CX-5461; 1 µM)	relative viability (IMD-0354; 0.04 µM)	relative viability (IMD-0354; 0.1265 µM)	relative viability (IMD-0354; 0.4 µM)	relative viability (IMD-0354; 1.265 µM)	relative viability (IMD-0354; 4 µM)
201T	0.985	1	0.986	0.985	0.936	1.1	1.15	0.563	0.725	0.324
A549	0.969	0.96	0.748	0.811	0.193	1.11	0.991	0.496	0.229	0.109
A-427	1.06	1.1	1.06	–	0.748	1.26	1.01	0.434	0.153	0.134
ABC-1	1.04	0.785	0.712	0.309	0.568	1.07	1.05	0.498	0.222	0.259
BEN	1.04	1	1.06	0.979	0.937	1.22	0.903	0.64	0.463	0.277
CAL-12T	1.02	0.994	0.947	0.936	0.662	1.07	0.922	0.545	0.251	0.162
COR-L23	1.03	1.07	0.758	0.973	0.583	0.922	1	0.422	0.13	0.14
COR-L 105	0.933	0.894	0.82	0.607	0.508	1.05	0.832	0.738	0.463	0.293
Calu-6	1.08	1.07	1.03	0.987	0.385	0.947	0.913	0.648	0.181	0.125
ChaGo-K-1	1.02	0.967	1.04	0.571	0.552	1.12	1.08	0.751	0.339	0.267
EBC-1	1.01	1.05	1.08	0.907	0.782	0.914	0.971	0.585	0.304	0.205
EKVX	1.11	1.05	1.05	0.677	0.915	1	0.972	0.589	0.915	0.358
EMC-BAC-2	0.962	0.909	0.769	0.818	0.488	1.02	0.962	0.675	0.425	0.383
EPLC-272H	0.994	0.886	0.901	–	0.922	1.21	1.08	0.717	0.442	0.16
H3255	1.02	0.94	0.921	0.609	0.909	0.911	1.01	0.621	0.601	0.362
HARA	1.01	1.03	0.957	0.728	0.713	1.17	0.88	0.537	0.154	0.205
HCC-15	1.01	1.08	0.978	0.833	0.689	0.949	0.935	0.663	0.16	0.15
HCC-44	0.956	0.998	0.964	0.98	0.839	0.967	1.03	0.497	0.301	0.194
HCC-78	1.01	0.879	0.941	0.907	0.902	0.988	0.989	0.579	0.586	0.487
HCC-366	1.11	1.02	1	1.02	0.322	1.04	1.09	0.543	0.111	0.0465
HCC-827	1.02	1.02	1.03	1.01	0.933	1.06	1.05	0.736	0.439	0.258
HOP-62	1.02	1.05	1.08	0.893	0.899	1.03	1.08	0.639	0.38	0.13
IA-LM	0.987	0.933	1	1.03	0.561	0.791	0.875	0.529	0.389	0.128

Cell Line	relative viability (CX-5461; 0.01 µM)	relative viability (CX-5461; 0.03162 µM)	relative viability (CX-5461; 0.1 µM)	relative viability (CX-5461; 0.3162 µM)	relative viability (CX-5461; 1 µM)	relative viability (IMD-0354; 0.04 µM)	relative viability (IMD-0354; 0.1265 µM)	relative viability (IMD-0354; 0.4 µM)	relative viability (IMD-0354; 1.265 µM)	relative viability (IMD-0354; 4 µM)
LC-2-ad	0.981	1.02	0.955	0.978	0.749	0.948	0.976	0.579	0.193	0.17
LCLC-97TM1	0.881	1.14	0.992	–	0.746	0.97	0.938	0.639	0.384	0.128
LCLC-103H	1.02	1.05	0.969	0.944	0.969	1.02	1.01	0.653	0.457	0.331
LK-2	0.89	1.07	1.13	–	0.783	1.19	0.986	–	1	0.271
LOU-NH91	1.07	1.01	0.997	0.574	0.845	1.1	1	0.353	0.252	0.273
LU99A	0.974	0.95	1.23	0.603	0.356	0.726	0.95	0.788	0.326	0.236
LXF-289	0.988	1.01	1.06	0.87	0.745	1.02	1.05	0.86	0.337	0.207
NCI-H23	1.05	1.04	0.856	0.773	0.544	1.14	0.942	0.518	0.195	0.2
NCI-H322M	0.923	0.987	1.03	0.491	0.731	0.992	1.09	0.805	0.406	0.331
NCI-H358	0.971	1.02	0.872	0.871	0.633	1.01	1	0.557	0.232	0.274
NCI-H441	1.08	1.17	0.947	0.888	0.689	1.13	0.966	0.521	0.227	0.243
NCI-H460	1.05	0.97	0.725	0.93	0.128	1.02	1.01	0.379	0.106	0.0241
NCI-H520	1.14	1.02	1.09	0.666	0.578	1.05	0.93	0.545	0.589	0.226
NCI-H522	0.98	0.944	0.946	–	0.951	0.934	0.848	0.909	0.7	0.406
NCI-H596	0.989	1.15	0.968	1.09	0.683	0.989	1.16	0.799	0.834	0.426
NCI-H647	1.08	0.935	0.991	0.822	0.403	1.04	1.06	0.405	0.172	0.11
NCI-H650	0.919	1.02	0.788	0.879	0.768	1.13	0.954	0.594	0.555	0.214
NCI-H661	1.04	0.978	1.02	0.626	0.835	0.999	0.955	0.646	0.291	0.305
NCI-H727	1.07	1.03	1.03	0.875	0.78	0.838	0.908	0.732	0.494	0.509
NCI-H838	0.983	1	0.992	0.78	0.806	0.977	0.954	0.565	0.432	0.27
NCI-H1299	0.998	0.99	1.02	1.01	0.944	0.85	1.02	0.638	0.221	0.179
NCI-H1355	1.03	1.06	0.96	0.521	0.671	1.12	0.946	0.716	0.368	0.221
NCI-H1395	0.978	0.853	0.816	0.475	0.588	1.15	0.989	0.823	0.324	0.296

Cell Line	relative viability (CX-5461; 0.01 µM)	relative viability (CX-5461; 0.03162 µM)	relative viability (CX-5461; 0.1 µM)	relative viability (CX-5461; 0.3162 µM)	relative viability (CX-5461; 1 µM)	relative viability (IMD-0354; 0.04 µM)	relative viability (IMD-0354; 0.1265 µM)	relative viability (IMD-0354; 0.4 µM)	relative viability (IMD-0354; 1.265 µM)	relative viability (IMD-0354; 4 µM)
NCI-H1437	1.03	0.97	0.894	1.03	0.877	1.12	0.941	0.626	0.32	0.244
NCI-H1563	0.963	0.954	0.806	0.939	0.64	0.979	0.974	0.856	0.472	0.402
NCI-H1623	1.18	0.979	0.904	0.674	0.94	0.962	1	1.02	0.992	0.451
NCI-H1648	0.614	0.952	0.674	0.742	0.851	0.588	0.686	0.685	0.814	0.365
NCI-H1650	0.965	0.948	0.406	0.794	0.205	0.96	0.771	0.616	0.252	0.174
NCI-H1651	0.956	0.871	0.57	0.959	0.371	1.04	0.983	0.577	0.402	0.139
NCI-H1666	0.985	0.992	0.949	0.904	0.808	0.954	0.922	0.82	0.611	0.523
NCI-H1703	0.955	1.06	0.91	1.09	0.569	1.11	1.02	0.507	0.282	0.14
NCI-H1734	1.02	1.05	1	0.694	0.579	1.09	0.969	0.731	0.306	0.142
NCI-H1755	1.09	1.03	1.01	1.01	0.901	0.989	1.02	0.76	0.454	0.26
NCI-H1792	1.01	0.894	0.904	1.05	0.502	0.969	0.847	0.553	0.412	0.434
NCI-H1793	0.989	1.1	0.875	0.997	0.942	1.09	0.759	0.499	0.229	0.213
NCI-H1915	1.06	1.13	0.996	0.79	0.899	0.824	1.02	0.675	0.316	0.165
NCI-H1944	1	1.14	0.994	0.358	0.318	0.866	0.981	0.653	0.74	0.156
NCI-H1975	1.02	0.974	0.905	0.961	0.714	0.949	0.986	0.625	0.211	0.212
NCI-H1993	1.06	1.08	1.01	0.952	0.993	0.939	0.89	0.648	0.555	0.567
NCI-H2009	1.02	1.04	0.879	1.02	0.75	1.02	0.929	0.738	0.19	0.131
NCI-H2023	1	0.903	–	0.648	0.0929	1.11	0.986	0.573	0.128	0.0998
NCI-H2085	1.07	1.01	0.992	1.02	0.869	1.06	0.975	0.775	0.449	0.415
NCI-H2087	1.26	1.16	1.02	1.01	0.717	1.02	1	0.382	0.11	0.152
NCI-H2126	1	1.06	1.03	0.991	0.972	1.03	0.981	0.848	0.484	0.387
NCI-H2170	1.03	1.02	1.08	1	1.02	0.956	1.02	0.777	0.806	0.226
